Source: US20180021277A1, “ANTI-VIRULENCE COMPOSITIONS AND METHODS” (priority 2012, published 2018)
Numbering of substitutions follows the chain as printed. “Also recorded” adds a separate entry of the source.

Experiments:
MRSA USA300 [1] = assay: Emergence of resistance in vitro: daily passaging with hemolysis read-out; format: cell-based, Staphylococcus aureus; conditions: 50 μg/mL, 16 daily passages; listed as F19
MRSA = assay: CFU counts of F19 treated vs. untreated MRSA cultures (serial dilution-plating); format: cell-based, Staphylococcus aureus
MRSE Q-15 [2] = assay: Host cell damage assay (LDH leakage), MRSE; format: cell-based, Staphylococcus epidermidis; conditions: for % Damage (LDH Leakage): THP-1 human monocytes; for Damage (%): Table 2, control = 100
Protocol: (§1) Damage to host cells was measured by leakage of lactate dehydrogenase (LDH) with the CytoTox 96 Non-Radioactive Cytotoxicity LDH Assay Promega Kits G178 and G1782 according to manufacturer's instructions.
(§2) […] The bacteria were cultured at 37° C., in a shaking incubator for 6 h at which time 20 μL of bacterial culture was added to 5×10^4 THP-1 monocytes or J774.2 macrophages in 100 μL of cell media (DMEM for J774.2 cells and RPMI for THP-1 cells) in 96 well plates. Bacteria and macrophage/monocytes were incubated together for 40 min at 37° C. Plates were then spun at 250 g for 4 min and 50 μL of the supernatant was removed to a new 96 well plate. 50 μL of substrate mix+assay buffer were added and incubated at room temperature for 10-30 min depending upon the rate of product formation and stopped by addition of 50 μL stop solution. The colorometric products were read at 490 nm on a Victor 3 plate reader. The data presented are from experiments performed in triplicate.
(§3) Gram-positive pathogens compromise host cell defense factors by puncturing membranes of immune system cells. To examine F19 efficacy in preventing host cell damage by various pathogens cell lysis assays were carried out by measuring leakage of lactate dehydrogenase (LDH) from cells. F19 indeed inhibits pathogen-mediated lysis of human THP-1 monocytes and mouse macrophage cell line J7774.2 by a series of Gram-positive pathogens, including MRSA, MRSE, Streptococcus pyogenes, Streptococcus pneumoniae and Bacillus cereus in a dose dependent manner (Table 2 for MRSA, Table 4 for other pathogens).

MRSA USA300 [3] = assay: Biofilm measurement (crystal violet), MRSA; format: cell-based, Staphylococcus aureus; conditions: control = 100
Protocol: Bacterial cells were grown in Luria Broth overnight and an OD600 of 0.5 corresponding to 10^6 cfu/mL. 200 μL of this bacterial culture was plated with the presence of compound at various concentrations. Biofilm was allowed to form by placing the plate at 37° C. in the incubator without shaking. The plate was then washed 2× with water while being careful not to disturb the biofilm. Water was aspirated out and the plate was baked dry in a 60° C. incubator for 2 h. 125 μL of a 0.06% crystal violet solution ([…] in H2O) was added to each well and allowed to sit at room temperature for 15 minutes. […] The plate was inverted on a paper towel to dry overnight.125 μL of 30% acetic acid was added to each well and was left at room temperature for 15 minutes. The wells were mixed by pipetting and the solution was transferred to a clean 96-well plate and read at OD595.

MRSE Q-15 [4] = assay: RT-qPCR of virulence gene transcription in MRSE; conditions: 50 μg/mL F19
[5] = biological target: T1, AgrA_C I238A, V235A, V232A and double mutants (Staphylococcus aureus, UniProt P0A0I7, I238A); assay: Microscale thermophoresis binding to AgrA_C alanine mutants; conditions: data not shown
T1 construct: made in house
T1 sequence (P0A0I7 143-238 I238A): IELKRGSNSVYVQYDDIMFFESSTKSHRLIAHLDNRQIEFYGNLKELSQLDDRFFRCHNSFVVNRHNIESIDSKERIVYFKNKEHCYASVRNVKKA

[6] = biological target: T2, AgrA_C I238A, V235A, V232A and double mutants (Staphylococcus aureus, UniProt P0A0I7, V232A); assay: as above
T2 construct: made in house
T2 sequence (P0A0I7 143-238 V232A): T1 sequence (P0A0I7 143-238 I238A) with V90A, A96I

[7] = biological target: T3, AgrA_C I238A, V235A, V232A and double mutants (Staphylococcus aureus, UniProt P0A0I7, V235A); assay: as above; conditions: data not shown
T3 construct: made in house
T3 sequence (P0A0I7 143-238 V235A): T1 sequence (P0A0I7 143-238 I238A) with V93A, A96I

[8] = biological target: T4, AgrA_C I238A, V235A, V232A and double mutants (Staphylococcus aureus, UniProt P0A0I7, I238A/V235A); assay: as above
T4 construct: made in house
T4 sequence (P0A0I7 143-238 V235A/I238A): T1 sequence (P0A0I7 143-238 I238A) with V93A

MRSA USA300 [9] = format: in vivo, mice; conditions: topical twice a day for seven days, day 8
[10] = system: Strepococcus pneumonia NR13395; assay: Host cell damage assay (LDH leakage), Streptococcus pneumoniae; format: cell-based; conditions: THP-1 human monocytes
Protocol: as §1, §2, §3

MRSA USA300 [11] = assay: Murine MRSA bacteremia/sepsis model
[12] = system: MRSA strain lacking the agr operon (Lac Δagr); assay: Biofilm formation in MRSA strain lacking the agr operon; format: cell-based, Staphylococcus aureus; conditions: data not shown

`CCCCCCc1cc(C(=O)COc2ccc(C(C)C)cc2)c(O)cc1O` [4f-19] was tested, and the “emergence of resistance/tolerance: hemolysis of rabbit blood over daily passages” value (MRSA USA300 [1]) was “no increase in hemolysis; also recorded: No emergence of resistance”, the “CFU counts, F19 treated vs. untreated cultures” value (MRSA) was “identical CFU counts” and the “% Damage (LDH Leakage)” value (MRSE Q-15 [2]; F19 1 μg/mL) was 85.5 ± 2.6%. The “% Damage (LDH Leakage)” value (MRSE Q-15 [2]; F19 5 μg/mL) was 62.6 ± 1.1%, the “% Damage (LDH Leakage)” value (MRSE Q-15 [2]; F19 10 μg/mL) was 48.1 ± 1.1% and the “% Damage (LDH Leakage)” value (MRSE Q-15 [2]; F19 20 μg/mL) was 26.5 ± 0.5%. The “% Damage (LDH Leakage)” value (MRSE Q-15 [2]; F19 30 μg/mL) was 22.1 ± 0.6%, the “% Damage (LDH Leakage)” value (MRSE Q-15 [2]; F19 40 μg/mL) was 19.6 ± 1.1% and the “Damage (%)” value (MRSE Q-15 [2]; F19 1 μg/ml) was 85.5 ± 2.6%. For the same molecule, the “Damage (%)” value (MRSE Q-15 [2]; F19 10 μg/ml) was 48.1 ± 1.1%, the “Damage (%)” value (MRSE Q-15 [2]; F19 50 μg/ml) was 15.7 ± 0.5% and the “Biofilm (%)” value (MRSA USA300 [3]; F19 1 μg/ml) was 78.8 ± 11.8%. The “Biofilm (%)” value (MRSA USA300 [3]; F19 10 μg/ml) was 53.7 ± 7.9%, the “Biofilm (%)” value (MRSA USA300 [3]; F19 50 μg/ml) was 20.6 ± 3.7% and the “inhibition of AtlE transcription” value (MRSE Q-15 [4]) was 1910 fold. For the same molecule, the “inhibition of psm-α transcription” value (MRSE Q-15 [4]) was 5043 fold, the “reduction of affinity by I238A mutant” value [5] was 14 fold and the “affinity to V232A mutant” value [6] was “no loss of affinity”. The “reduction of affinity by V235A mutant” value [7] was 5 fold, the “binding to the I238A/V235A double mutant” value [8] was “very weak binding at the background level of the instrument” and the “bacterial load on the wounds compared to vehicle-treated or untreated wounds” value (MRSA USA300 [9]) was “did not reduce the bacterial load on the wounds”. For the same molecule, the “tissue burden of the wound, average log CFUs ± standard deviation” value (MRSA USA300 [9]; cephalothin 30 mg/kg, F19 20 mg/kg, vancomycin 30 mg/kg) was 8.50±0.4 log CFU, the “% Damage (LDH Leakage)” value ([10]; F19 1 μg/mL) was 89.3 ± 1.0% and the “% Damage (LDH Leakage)” value ([10]; F19 5 μg/mL) was 68.3 ± 1.1%. For the same molecule, the “% Damage (LDH Leakage)” value ([10]; F19 10 μg/mL) was 45.5 ± 1.7%, the “% Damage (LDH Leakage)” value ([10]; F19 20 μg/mL) was 37.1 ± 0.6% and the “% Damage (LDH Leakage)” value ([10]; F19 50 μg/mL) was 37.7 ± 0.7%. The “mean bacterial load in blood compared to vehicle-treated animals” value (MRSA USA300 [11]; 30 mg/kg IP twice daily, day 6) was “nearly an order of magnitude lower”, the survival (MRSA USA300 [11]; F19 alone 30 mg/kg IP twice daily for 7 days) was 100% and the “biofilm formation in Lac Δagr” value [12] was “biofilm inhibition was also observed”.
